System: isolated beating rat heart
Experiment: ischemia/reperfusion model (isolated beating rat heart)
Conditions: combination of the NBC blocker with the NHE inhibitor cariporide mesilate

With `O=C(O)c1cc(S(=O)(=O)NCc2ccc(F)c(Cl)c2)c(Cl)cc1NCCCCc1ccccc1` [Example 1, 4-Chloro-5-(3-chloro-4-fluorobenzylsulfamoyl)-2-phenylbutylaminobenzoic acid] the cardioprotective action was “greater than additive cardioprotective action”.

Target: T1, heart form of human NBC1 (Homo sapiens, UniProt Q9Y6R1)
T1 construct: expressed in transfected cells
T1 sequence (Q9Y6R1 1-1079): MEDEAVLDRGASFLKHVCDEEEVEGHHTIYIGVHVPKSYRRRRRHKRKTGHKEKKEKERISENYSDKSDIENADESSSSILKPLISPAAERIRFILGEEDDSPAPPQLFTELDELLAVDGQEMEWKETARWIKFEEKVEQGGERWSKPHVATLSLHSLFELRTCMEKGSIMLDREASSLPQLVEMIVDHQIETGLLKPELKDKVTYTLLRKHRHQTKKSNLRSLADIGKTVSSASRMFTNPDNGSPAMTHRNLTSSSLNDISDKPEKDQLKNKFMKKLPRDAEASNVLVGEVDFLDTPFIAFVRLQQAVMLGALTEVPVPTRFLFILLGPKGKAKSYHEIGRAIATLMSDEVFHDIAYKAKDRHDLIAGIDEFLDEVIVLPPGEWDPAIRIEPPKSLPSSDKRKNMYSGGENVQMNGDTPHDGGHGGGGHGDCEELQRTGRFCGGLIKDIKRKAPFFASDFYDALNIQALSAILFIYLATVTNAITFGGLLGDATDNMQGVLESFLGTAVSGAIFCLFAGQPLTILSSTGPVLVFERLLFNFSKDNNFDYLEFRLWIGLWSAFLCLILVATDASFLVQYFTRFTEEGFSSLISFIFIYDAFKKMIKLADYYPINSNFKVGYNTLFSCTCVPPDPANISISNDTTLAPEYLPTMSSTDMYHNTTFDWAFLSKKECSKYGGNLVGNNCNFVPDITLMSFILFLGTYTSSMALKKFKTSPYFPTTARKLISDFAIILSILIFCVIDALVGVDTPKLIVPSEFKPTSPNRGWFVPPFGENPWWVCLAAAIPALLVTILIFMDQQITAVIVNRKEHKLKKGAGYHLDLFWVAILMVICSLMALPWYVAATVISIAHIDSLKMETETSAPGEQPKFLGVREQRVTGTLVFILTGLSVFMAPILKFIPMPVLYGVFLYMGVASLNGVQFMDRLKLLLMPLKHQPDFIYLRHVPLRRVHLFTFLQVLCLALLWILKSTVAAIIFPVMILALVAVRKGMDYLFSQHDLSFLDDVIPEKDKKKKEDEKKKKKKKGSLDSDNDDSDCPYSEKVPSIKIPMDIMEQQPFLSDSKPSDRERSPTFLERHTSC
Experiment: NBC activity measurement (pHi recovery after acid load, BCECF, FLIPR)
Type: cell-based
Conditions: residual NBC activity at inhibitor concentration of 10 μM; CHO K1 cells transfected with heart form of human NBC1; NHE and NCBE blocked; duplicate determinations
Excerpt: Firstly, the heart form of human NBC1 was cloned by RT-PCR. After confirmation of the sequence, the corresponding cDNAs were cloned into the vector pcDNA3.1+, which contains the neo gene as a selection marker for eukaryotic cells. For the amplification of the human heart form of NBC1, human heart mRNA (Clontech, Palo Alto, Calif., USA) was amplified using primers which cover the area in which the heart form differs from the kidney form. The heart form in this case differs only at the 5′ end of the coding sequence. The area coding for the first 41 amino acids of the kidney form is replaced in the heart form by an area coding for 85 amino acids (positions 118-370 from Abukadze et al., J. Biol. Chem. 273,17689-17695 (1998) or positions 45-294 from Choi et al., Am. J. Physiol. Cell Physiol. 276, C576-C584 (1999) replace positions 150-270 from Burnham et al. (see above.), J. Biol. Chem. 272, 19 111-19 114 (1997). The product of the PCR reaction was first cloned into the vector pCR2.1 and, after verification of the sequence, cloned into the cDNA of the kidney form of NBC1 by means of cleavage sites introduced by means of the PCR reaction. The construct obtained was checked for correct incorporation of the human heart NBC1-cDNA by sequencing. The plasmids obtained for the heart form of human NBC1 were transfected by means of the LipofectAmine™ reagent of the company LifeTechnologies (Gaithersburg, Md., USA) into the cell line CHO K1 (ovary cells of the Chinese hamster), which has no measurable NBC activity. After selection for transfected cells by means of growth in G418-containing medium (only cells which have obtained a neo gene by transfection can survive under these conditions), individual cells were isolated and cultured. Using the test described below, cell clones were identified in FLIPR which have a clear NBC activity. The best cell lines were used for the further tests and, to avoid a loss of the transfected sequence, cultured in G418-containing medium under continuous selection pressure.
For the determination of the inhibitory activity of the active compounds on the heart form of human NBC 1, a test was constructed which represents a further development of the assay constructed for the testing of inhibitors of NCBE (Na^+dependent Cl^−/HCO3− exchanger) (EP 0 903 339) based on the acid load method (Sardet et al., Cell 56, 271-280 (1989); Faber et al., Cell. Physiol. Biochem. 6, 39-49 (1996). In this test, the recovery of the intracellular pH (pHi) after prior acidification is determined under conditions in which the NBC is active, the other pHiregulating systems of the CHO cells such as NHE (Na^+/H^+ exchanger) and NCBE (Na^+-dependent Cl^−/HCO3− exchanger) are blocked, however, by specific inhibitors. In this way, it is ensured that the recovery of the intracellular pH observed is based on the activity of NBC1.
The transfected cells were inoculated into 96 well microtiter plates in a density of about 15,000 cells/well in 200 μl of growth medium and incubated overnight at 37° C. in a CO2 incubator. The intracellular pH of the transfected cells was determined using the pH-sensitive fluorescent dye BCECF (Molecular Probes (Eugene, Oreg., USA), the precursor BCECF-AM is employed). The cells were first loaded with BCECF-AM. The growth medium of the cells inoculated on the day before was manually removed, since the fetal calf serum present in the medium could interfere with the BCECF staining. For staining, 100 μl of NH4Cl stain buffer (20 mM NH4Cl, 115 mM NaCl, 1 mM MgSO4, 1 mM CaCl2, 5 mM KCl, 20 mMHEPES, 5 mM glucose; pH adjusted to 7.4 using 1 M NaOH) was added to the cells of each well, which contains 5 μM BCECF-AM. The cells were incubated with the stain solution at 37° C. in a CO2 incubator for 20 minutes. […]

First: 4-(4-Methylphenyl)-5-(3-chloro-4-fluorobenzylsulfamoyl)-2-phenylbutylaminobenzoic acid [Example 7]
Second: 4-Chloro-5-(cyclohexylmethylsulfamoyl)-2-phenylbutylaminobenzoic acid [Example 20]
The “residual activity [%] at 10 μM” value of the first is higher: 95% for the first, 89% for the second.

Going from “4-Chloro-5-(phenylbutylsulfamoyl)-2-phenylbutylaminobenzoic Acid [Example 19]” to “4-Chloro-5-[(5-methylfuran-2-ylmethyl)sulfamoyl]-2-phenylbutylaminobenzoic acid [Example 15]”, the “residual activity [%] at 10 μM” value rises from 77% to 79%.

First: O=C(O)c1cc(S(=O)(=O)NCc2ccc(F)c(Cl)c2)c(Cl)cc1NCCCCc1ccccc1 [Example 1, 4-Chloro-5-(3-chloro-4-fluorobenzylsulfamoyl)-2-phenylbutylaminobenzoic acid]
Second: O=C(O)c1cc(S(=O)(=O)NCc2ccc(F)c(Cl)c2)c(Br)cc1NCCCCc1ccccc1 [Example 2, 4-Bromo-5-(3-chloro-4-fluorobenzylsulfamoyl)-2-phenylbutylaminobenzoic acid]
The “residual activity [%] at 10 μM” value of the first is lower: 46% for the first, 56% for the second.

Going from `O=C(O)c1cc(S(=O)(=O)NCc2ccc(F)c(Cl)c2)ccc1NCCCCc1ccccc1` [Example 3, 5-(3-Chloro-4-fluorobenzylsulfamoyl)-2-phenylbutylaminobenzoic acid] to `Cc1cc(NCCCCc2ccccc2)c(C(=O)O)cc1S(=O)(=O)NCc1ccc(F)c(Cl)c1` [Example 4, 4-Methyl-5-(3-chloro-4-fluorobenzylsulfamoyl)-2-phenylbutylaminobenzoic acid], the “residual activity [%] at 10 μM” value falls from 88% to 54%.

Going from `CC(C)c1cc(NCCCCc2ccccc2)c(C(=O)O)cc1S(=O)(=O)NCc1ccc(F)c(Cl)c1` [Example 5, 4-isopropyl-5-(3-chloro-4-fluorobenzylsulfamoyl)-2-phenylbutylaminobenzoic acid] to `CCCc1cc(NCCCCc2ccccc2)c(C(=O)O)cc1S(=O)(=O)NCc1ccc(F)c(Cl)c1` [Example 6, 4-n-Propyl-5-(3-chloro-4-fluorobenzylsulfamoyl)-2-phenylbutylaminobenzoic acid], the “residual activity [%] at 10 μM” value falls from 78% to 69%.

`O=C(O)c1cc(S(=O)(=O)NCc2ccncc2)c(Cl)cc1NCCCCc1ccccc1` [Example 8, 4-Chloro-2-phenylbutylamino-5-[(pyridin-4-ylmethyl)sulfamoyl]benzoic acid] and `O=C(O)c1cc(S(=O)(=O)NCc2ccccn2)c(Cl)cc1NCCCCc1ccccc1` [Example 9, 4-Chloro-2-phenylbutylamino-5-[(pyridin-2-ylmethyl)sulfamoyl]benzoic acid] are the same in “residual activity [%] at 10 μM” value: 89% for the first, 89% for the second.

Compared with `O=C(O)c1cc(S(=O)(=O)NCc2cccc(Cl)c2)c(Cl)cc1NCCCCc1ccccc1` [Example 10, 4-Chloro-2-phenylbutylamino-5-(3-chlorobenzylsulfamoyl)benzoic Acid], `NS(=O)(=O)c1ccc(CNS(=O)(=O)c2cc(C(=O)O)c(NCCCCc3ccccc3)cc2Cl)cc1` [Example 11, 4-Chloro-2-phenylbutylamino-5-(4-sulfamoylbenzylsulfamoyl)benzoic acid] is higher in “residual activity [%] at 10 μM” value: 75% for the first, 81% for the second.

Compared with `O=C(O)c1cc(S(=O)(=O)NCc2cccc(Cl)c2Cl)c(Cl)cc1NCCCCc1ccccc1` [Example 12, 4-Chloro-2-phenylbutylamino-5-(2,3-dichlorobenzylsulfamoyl)benzoic acid], `O=C(O)c1cc(S(=O)(=O)NCc2ccc(Cl)cc2Cl)c(Cl)cc1NCCCCc1ccccc1` [Example 13, 4-Chloro-2-phenylbutylamino-5-(2,4-dichlorobenzylsulfamoyl)benzoic acid] is higher in “residual activity [%] at 10 μM” value: 37% for the first, 60% for the second.

First: O=C(O)c1cc(S(=O)(=O)NCc2c(F)cccc2Cl)c(Cl)cc1NCCCCc1ccccc1 [Example 14, 4-Chloro-2-phenylbutylamino-5-(2-chloro-6-fluorobenzylsulfamoyl)benzoic acid]
Second: O=C(O)c1cc(S(=O)(=O)NCCc2ccc(Cl)cc2)c(Cl)cc1NCCCCc1ccccc1 [Example 16, 4-Chloro-5-[2-(4-chlorophenyl)ethylsulfamoyl]-2-phenylbutylaminobenzoic acid]
The “residual activity [%] at 10 μM” value of the first is lower: 87% for the first, 91% for the second.

Compared with `O=C(O)c1cc(S(=O)(=O)NCCc2cccs2)c(Cl)cc1NCCCCc1ccccc1` [Example 17, 4-Chloro-2-phenylbutylamino-5-(2-thiophen-2-ylethylsulfamoyl)benzoic acid], `CCc1ccc(NS(=O)(=O)c2cc(C(=O)O)c(NCCCCc3ccccc3)cc2Cl)cc1` [Example 18, 4-Chloro-5-(4-ethylphenylsulfamoyl)-2-phenylbutylaminobenzoic acid] is lower in “residual activity [%] at 10 μM” value: 95% for the first, 79% for the second.

With `CC(C)CNS(=O)(=O)c1cc(C(=O)O)c(NCCCCc2ccccc2)cc1Cl` [Example 21, 4-Chloro-5-(isobutylsulfamoyl)-2-phenylbutylaminobenzoic acid] the “residual activity [%] at 10 μM” value was 94%.
